In test [1] the target is T1, 5-HT3 receptor (Rattus norvegicus, UniProt P35563).
T1 construct: crude synapse membrane sample was prepared from rat cerebral cortex; from tissue; host or cells: rat cerebral cortex, crude synaptic membranes
T1 sequence (P35563 24-483): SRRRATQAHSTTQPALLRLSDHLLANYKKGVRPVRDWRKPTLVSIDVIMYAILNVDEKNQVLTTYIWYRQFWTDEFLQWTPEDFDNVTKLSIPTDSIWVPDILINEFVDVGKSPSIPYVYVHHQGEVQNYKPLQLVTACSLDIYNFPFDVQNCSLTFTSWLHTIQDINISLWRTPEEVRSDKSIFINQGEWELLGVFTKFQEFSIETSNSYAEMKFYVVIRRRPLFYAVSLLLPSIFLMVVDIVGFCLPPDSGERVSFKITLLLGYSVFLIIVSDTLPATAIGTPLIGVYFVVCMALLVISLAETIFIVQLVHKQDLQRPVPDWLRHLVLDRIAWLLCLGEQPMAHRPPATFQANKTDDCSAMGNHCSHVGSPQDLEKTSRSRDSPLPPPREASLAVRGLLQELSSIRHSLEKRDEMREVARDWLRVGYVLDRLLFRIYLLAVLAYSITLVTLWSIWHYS
Put plainly: 5-HT3 receptor binding test. The settings on record: [3H]Granisetron 1.0 nM, crude synapse membrane from rat cerebral cortex, 25°C; for IC50: cells marked * are IC50, read-out: Affinity for receptor 5-HT3 (∗ shows IC50); for Ki: cells without asterisk, read-out: Affinity for receptor (Ki value, nM) 5-HT3. As to the method: Experimental Example 2 : 5-HT3 receptor binding test
According to the method of Peroutka et al (European Journal of Pharmacology, vol. 148, pp. 297-299), a specific 5-HT3 receptor binding test was run using, as a tracer ligand, endo-1-methyl-N-(9-methyl-9-azabicyclo[3.3.1]non-3-yl)-1H-indazole-3-carboxamide substituted by tritium (hereinafter to be referred to as [3H]Granisetron). Specifically, crude synapse membrane sample was prepared from rat cerebral cortex, suspended in 50 mM HEPES buffer (pH 7.4) and used for testing. The test compound having several different concentrations and [3H]Granisetron (final concentration 1.0 nM) were added to this suspension and allowed to react at 25°C. Thirty minutes later, the reaction mixture was filtered by suction with cell harvester. The filter was washed with 50 mM Tris buffer (pH 7.4), and the radioactivity on the filter was counted using liquid scintillation counter or β-plate. The non-specific binding was determined in the presence of 1 µM Tropisetron. The concentration of the test compound necessary for 50% inhibition (IC50) and Ki value were determined from graph.

In test [2] the target is T2, 5-HT4 receptor (Cavia porcellus, UniProt O70528).
T2 construct: crude synapse membrane sample was prepared from guinea pig striatum; from tissue; host or cells: guinea pig striatum, crude synaptic membranes
T2 sequence (O70528 whole entry): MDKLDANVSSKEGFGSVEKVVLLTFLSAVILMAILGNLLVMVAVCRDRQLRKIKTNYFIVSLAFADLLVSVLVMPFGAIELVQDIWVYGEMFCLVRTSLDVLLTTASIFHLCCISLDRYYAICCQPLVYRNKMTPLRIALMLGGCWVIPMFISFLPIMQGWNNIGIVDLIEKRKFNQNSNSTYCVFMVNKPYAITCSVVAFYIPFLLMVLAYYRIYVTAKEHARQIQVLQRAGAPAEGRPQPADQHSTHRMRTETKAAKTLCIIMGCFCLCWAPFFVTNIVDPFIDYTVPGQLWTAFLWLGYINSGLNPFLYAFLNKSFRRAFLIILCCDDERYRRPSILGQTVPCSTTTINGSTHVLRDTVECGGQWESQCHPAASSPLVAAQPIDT
Put plainly: 5-HT4 receptor binding test. The settings on record: [3H]GR113808 0.1 nM, crude synapse membrane from guinea pig striatum, 37°C; read-out: Affinity for receptor (Ki value, nM) 5-HT4. Also on record: species or system guinea pig. On the procedure:
Experimental Example 1 : 5-HT4 receptor binding test
According to the method of C.J. Grossman et al. (British Journal of Pharmacology, vol. 109, pp. 618-624), a specific 5-HT4 receptor binding test was run using, as a tracer ligand, 1-methyl-1H-indole-3-carboxylic acid · 1-(2-methylsulfonylaminoethyl)-piperidin-4-ylmethyl ester substituted by tritium (hereinafter to be referred to as [3H]GR113808). Specifically, crude synapse membrane sample was prepared from guinea pig striatum, suspended in 50 mM HEPES buffer (pH 7.4) and used for testing. The test compound having several different concentrations and [3H]GR113808 (final concentration 0.1 nM) were added to this suspension and allowed to react at 37°C. Thirty minutes later, the reaction mixture was filtered by suction with cell harvester. The filter was washed with 50 mM HEPES buffer, and the radioactivity on the filter was counted by liquid scintillation counter. The non-specific binding was determined in the presence of 1 µM GR113808. The concentration of the test compound necessary for 50% inhibition (IC50) and Ki value were determined from graph.

Test [3] deals with isolated guinea pig ascending colon (Cavia porcellus, UniProt O70528). The experiment in a line: contraction of isolated guinea pig ascending colon. The class given is cell-based. The settings on record: male Hartley guinea pig ascending colon, Tyrode solution 37°C, relative to methacholine (30 µM) contraction; read-out: Contraction of removed colon (EC50). As to the method:
Experimental Example 3 : contraction of isolated guinea pig ascending colon
About 3 cm long ascending colon segment was taken from male Hartley guinea pig and suspended in 10 ml of a Tyrode solution ventilated with a mixed gas of oxygen (95%) and CO2 (5%) at 37°C with the load of 2 g. The contraction was isotonically measured via isotonic transducer. After an equilibrium period of about 30 min, the test compound was administered non-cumulatively from lower concentrations, and dose-dependent contraction was measured. The test compound was administered at 15 minutes intervals. Then, contraction by the test compound in the presence of a 5-HT4 receptor antagonist, 4-amino-3-chloro-6-methoxybenzoic acid · 2-diethylaminoethyl ester (0.3 µM, hereinafter to be referred to as SDZ 205-557) was determined, and antagonistic effect on the reaction by SDZ 205-557 was confirmed.
The contraction by the test compound was evaluated based on the ratio of reaction relative to mean contraction induced by methacholine (30 µM) administered before and after each determination of dose-dependent contraction. The contraction was probit-converted using the maximum value of dose-response curve as 100, and expressed by EC50 as determined from linear regression and maximum reaction ratio.

Where only a bound is given, the exact number is not on record here.

By IC50 is commonly meant the concentration that inhibits the measured activity by half. As a reminder, the Ki is a measure of affinity in units of concentration, obtained from inhibition or displacement. The term EC50 denotes the concentration needed to bring the measured effect to its halfway point.

Sequence of isolated guinea pig ascending colon (O70528 whole entry): as above

Take `CCCNC(=O)NCCCCCN1CCC(CNC(=O)c2cc(Cl)c(N)cc2OC)CC1` [Example 48, 4-amino-5-chloro-2-methoxy-N-(1-(5-(3-n-propylureido)pentyl)piperidin-4-ylmethyl)benzamide]: the half-inhibitory concentration (IC50) in test [1] is over 1000 nM. Moreover, the Ki in test [2] is 2.1 nM. Also, the EC50 in test [3] stood at 4.8 nM.
In the same order, the values of `COc1cc(N)c(Cl)cc1C(=O)NC[C@H]1CCN(CCCCCNC(=O)Nc2ccccc2)C1` [Example 56, 4-amino-5-chloro-2-methoxy-N-((3R)-1-(5-(3-phenylureido)pentyl)pyrrolidin-3-ylmethyl)benzamide] are over 1000 nM, 0.65 nM and 1 nM.
In the same order, the values of `COc1cc(N)c(Cl)cc1C(=O)NCC1CCN(CCCCCN2C(=O)c3ccccc3C2=O)C1` (stereo not drawn) [Example 70, 4-amino-5-chloro-N-(1-(5-(2,3-dihydro-1,3-dioxo-1H-isoindol-2-yl)pentyl)pyrrolidin-3-ylmethyl)-2-methoxybenzamide] are over 1000 nM, 7.4 nM and 6.7 nM.
With `COc1cc(N)c(Cl)cc1C(=O)NC[C@H]1CCN(CCCCNC(=O)c2cn(C)c3ccccc23)C1` [Example 85, N-(4-((3R)-3-(4-amino-5-chloro-2-methoxybenzoylaminomethyl)pyrrolidin-1-yl)butyl)-1-methyl-1H-indole-3-carboxamide], the Ki in test [1] worked out at 260 nM; in test [2], 0.44 nM. Further, the EC50 in test [3] stood at 1.2 nM.
Regarding `COc1cc(N)c(Cl)cc1C(=O)NC[C@H]1CCN(CCCCCNC(=O)c2cn(C)c3ccccc23)C1` [Example 88, N-(5-((3R)-3-(4-amino-5-chloro-2-methoxybenzoylaminomethyl)pyrrolidin-1-yl)pentyl)-1-methyl-1H-indole-3-carboxamide], the Ki in test [1] came to 350 nM; in test [2], 1.2 nM. Besides, the EC50 in test [3] turned out to be 1.4 nM.
On to `COc1cc(N)c(Cl)cc1C(=O)NCC1CCN(CCCCCNC(=O)c2cn(C)c3ccccc23)CC1` [Example 90, N-(5-(4-(4-amino-5-chloro-2-methoxybenzoylaminomethyl)piperidin-1-yl)pentyl)-1-methyl-1H-indole-3-carboxamide], for which the IC50 in test [1] is over 1000 nM. Moreover, the Ki in test [2] came out at 0.43 nM. Moreover, the EC50 in test [3] was 0.9 nM.
Take `COc1cc(N)c(Cl)cc1C(=O)NCC1CCN(CCCCNC(=O)c2cn(C)c3ccccc23)CC1` [Example 98, N-(4-(4-(4-amino-5-chloro-2-methoxybenzoylaminomethyl)piperidin-1-yl)butyl)-1-methyl-1H-indole-3-carboxamide]: the IC50 in test [1] is over 1000 nM. Moreover, the Ki in test [2] is 1.6 nM. The EC50 in test [3] came out at 4 nM.
